The inhibition is the change of the read-out against control, counted positive when it falls.

For this experiment, the target named is T1, chimeric human H3 receptor (Homo sapiens, UniProt Q9Y5N1).
T1 construct: rat Galpha-i2 (Gnai2, rat); made in house; host or cells: Sf9 insect cells (baculovirus); P2 membranes
The experiment can be described thus: Chimeric human H3 receptor screening GTP binding assay (inhibition of histamine-stimulated GTP-gamma35S binding, Example 8). Type of experiment: biochemical. The settings on record: 1 h; assay described in Example 8; symbol "!" in column headed Ki; read-out: Ki ("!": percent inhibition of agonist-induced GTP-gammaS binding to H3). Summed up:
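Compound tested at 4 μM against 1 μM histamine stimulation; 125 pM GTP-gamma35S binding measured by filtration and scintillation after 60 min at room temperature. Membranes from Sf9 cells expressing chimeric human H3 plus G-protein subunits, in Tris pH 7.4/NaCl/MgCl2/GDP buffer; values are % inhibition after nonspecific subtraction.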

Some results are limits rather than exact numbers.

T1 sequence (Q9Y5N1 with tags, fused parts or gaps): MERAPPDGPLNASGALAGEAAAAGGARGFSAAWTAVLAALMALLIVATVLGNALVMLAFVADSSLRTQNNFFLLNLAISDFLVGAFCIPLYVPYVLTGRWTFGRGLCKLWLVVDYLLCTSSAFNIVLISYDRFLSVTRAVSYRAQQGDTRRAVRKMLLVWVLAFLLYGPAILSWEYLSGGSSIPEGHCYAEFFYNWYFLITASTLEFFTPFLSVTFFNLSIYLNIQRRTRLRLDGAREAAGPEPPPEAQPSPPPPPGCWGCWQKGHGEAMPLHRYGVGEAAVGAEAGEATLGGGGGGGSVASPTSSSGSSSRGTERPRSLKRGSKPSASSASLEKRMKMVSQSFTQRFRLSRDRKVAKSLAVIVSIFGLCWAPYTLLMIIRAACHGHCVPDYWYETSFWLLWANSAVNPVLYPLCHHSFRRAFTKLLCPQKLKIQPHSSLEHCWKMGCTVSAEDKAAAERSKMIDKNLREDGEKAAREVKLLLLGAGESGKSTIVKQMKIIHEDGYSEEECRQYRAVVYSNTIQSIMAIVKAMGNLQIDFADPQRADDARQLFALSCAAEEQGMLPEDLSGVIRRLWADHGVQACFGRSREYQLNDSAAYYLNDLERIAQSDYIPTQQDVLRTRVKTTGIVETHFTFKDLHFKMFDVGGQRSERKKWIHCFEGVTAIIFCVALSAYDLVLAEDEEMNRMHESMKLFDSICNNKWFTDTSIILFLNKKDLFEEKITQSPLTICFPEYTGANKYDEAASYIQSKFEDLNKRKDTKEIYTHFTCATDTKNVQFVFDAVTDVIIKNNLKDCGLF

As to `Cc1ccc(Oc2ccccc2C(=O)N2CCc3cnc(N4CCN(C5CCC5)CC4)nc3CC2)cc1` [Compound 418, 2-(4-cyclobutylpiperazin-1-yl)-7-[2-(4-methylphenoxy)benzoyl]-6,7,8,9-tetrahydro-5H-pyrimido[4,5-d]azepine], the inhibition at 4 µM was at least 90%. Take `O=C(c1ccccc1Oc1ccc(Cl)cc1)N1CCc2cnc(N3CCN(C4CCC4)CC3)nc2CC1` [Compound 419, 7-[2-(4-chlorophenoxy)benzoyl]-2-(4-cyclobutylpiperazin-1-yl)-6,7,8,9-tetrahydro-5H-pyrimido[4,5-d]azepine]: the inhibition at 4 µM is at least 90%.

Regarding `COc1ccc(Cl)cc1C(=O)N1CCc2cnc(N3CCN(C4CCC4)CC3)nc2CC1` [Compound 420, 7-(5-chloro-2-methoxybenzoyl)-2-(4-cyclobutylpiperazin-1-yl)-6,7,8,9-tetrahydro-5H-pyrimido[4,5-d]azepine], the inhibition at 4 µM is at least 90%. Consider `COc1cc(Cl)ccc1C(=O)N1CCc2cnc(N3CCN(C4CCC4)CC3)nc2CC1` [Compound 421, 7-(4-chloro-2-methoxybenzoyl)-2-(4-cyclobutylpiperazin-1-yl)-6,7,8,9-tetrahydro-5H-pyrimido[4,5-d]azepine], for which the inhibition at 4 µM is at least 90%. Regarding `O=C(c1ccccc1Oc1ccccc1)N1CCc2cnc(N3CCN(C4CCC4)CC3)nc2CC1` [Compound 422, 2-(4-cyclobutylpiperazin-1-yl)-7-(2-phenoxybenzoyl)-6,7,8,9-tetrahydro-5H-pyrimido[4,5-d]azepine], the inhibition at 4 µM was at least 90%.

Turning to `COc1ccc(OC)c(C(=O)N2CCc3cnc(N4CCN(C5CCC5)CC4)nc3CC2)c1` [Compound 423, 2-(4-cyclobutylpiperazin-1-yl)-7-(2,5-dimethoxybenzoyl)-6,7,8,9-tetrahydro-5H-pyrimido[4,5-d]azepine], the inhibition at 4 µM is at least 90%. As to `COc1cccc(OC)c1C(=O)N1CCc2cnc(N3CCN(C4CCC4)CC3)nc2CC1` [Compound 424, 2-(4-cyclobutylpiperazin-1-yl)-7-(2,6-dimethoxybenzoyl)-6,7,8,9-tetrahydro-5H-pyrimido[4,5-d]azepine], the inhibition at 4 µM is at least 90%. `COc1ccc(C(=O)N2CCc3cnc(N4CCN(C5CCC5)CC4)nc3CC2)c(Cl)c1OC` [Compound 425, 7-(2-chloro-3,4-dimethoxybenzoyl)-2-(4-cyclobutylpiperazin-1-yl)-6,7,8,9-tetrahydro-5H-pyrimido[4,5-d]azepine]: the inhibition at 4 µM was at least 90%. Regarding `COc1ccc(Cl)c(OC)c1C(=O)N1CCc2cnc(N3CCN(C4CCC4)CC3)nc2CC1` [Compound 426, 7-(3-chloro-2,6-dimethoxybenzoyl)-2-(4-cyclobutylpiperazin-1-yl)-6,7,8,9-tetrahydro-5H-pyrimido[4,5-d]azepine], the inhibition at 4 µM was at least 90%. For the compound `COc1c(Cl)cc(Cl)c(OC)c1C(=O)N1CCc2cnc(N3CCN(C4CCC4)CC3)nc2CC1` [Compound 427, 2-(4-cyclobutylpiperazin-1-yl)-7-(3,5-dichloro-2,6-dimethoxybenzoyl)-6,7,8,9-tetrahydro-5H-pyrimido[4,5-d]azepine], the inhibition at 4 µM is at least 90%. With `COc1cc(Cl)c(C(=O)N2CCc3cnc(N4CCN(C5CCC5)CC4)nc3CC2)cc1OC` [Compound 428, 7-(2-chloro-4,5-dimethoxybenzoyl)-2-(4-cyclobutylpiperazin-1-yl)-6,7,8,9-tetrahydro-5H-pyrimido[4,5-d]azepine], the inhibition at 4 µM was at least 90%.

With `COc1cc(Br)c(C(=O)N2CCc3cnc(N4CCN(C5CCC5)CC4)nc3CC2)cc1OC` [Compound 429, 7-(2-bromo-4,5-dimethoxybenzoyl)-2-(4-cyclobutylpiperazin-1-yl)-6,7,8,9-tetrahydro-5H-pyrimido[4,5-d]azepine], the inhibition at 4 µM is at least 90%. The figure for `COc1cccc(C(=O)N2CCc3cnc(N4CCN(C5CCC5)CC4)nc3CC2)c1OC` [Compound 430, 2-(4-cyclobutylpiperazin-1-yl)-7-(2,3-dimethoxybenzoyl)-6,7,8,9-tetrahydro-5H-pyrimido[4,5-d]azepine] is at least 90%; for `COc1ccc(C(=O)N2CCc3cnc(N4CCN(C5CCC5)CC4)nc3CC2)c(OC)c1` [Compound 431, 2-(4-cyclobutylpiperazin-1-yl)-7-(2,4-dimethoxybenzoyl)-6,7,8,9-tetrahydro-5H-pyrimido[4,5-d]azepine] it is at least 90%; for `COc1ccc(C(=O)N2CCc3cnc(N4CCN(C5CCC5)CC4)nc3CC2)c(OC)c1OC` [Compound 432, 2-(4-cyclobutylpiperazin-1-yl)-7-(2,3,4-trimethoxybenzoyl)-6,7,8,9-tetrahydro-5H-pyrimido[4,5-d]azepine] it is at least 90%. The figure for `O=C(c1c(F)cccc1Cl)N1CCc2cnc(N3CCN(C4CCC4)CC3)nc2CC1` [Compound 433, 7-(2-chloro-6-fluorobenzoyl)-2-(4-cyclobutylpiperazin-1-yl)-6,7,8,9-tetrahydro-5H-pyrimido[4,5-d]azepine] is at least 90%; for `O=C(c1c(F)cccc1C(F)(F)F)N1CCc2cnc(N3CCN(C4CCC4)CC3)nc2CC1` [Compound 434, 2-(4-cyclobutylpiperazin-1-yl)-7-[2-fluoro-6-(trifluoromethyl)benzoyl]-6,7,8,9-tetrahydro-5H-pyrimido[4,5-d]azepine] it is at least 90%; for `O=C(c1c(Cl)cccc1Cl)N1CCc2cnc(N3CCN(C4CCC4)CC3)nc2CC1` [Compound 435, 2-(4-cyclobutylpiperazin-1-yl)-7-(2,6-dichlorobenzoyl)-6,7,8,9-tetrahydro-5H-pyrimido[4,5-d]azepine] it is at least 90%. Regarding `O=C(c1ccccc1Cl)N1CCc2cnc(N3CCN(C4CCC4)CC3)nc2CC1` [Compound 436, 7-(2-chlorobenzoyl)-2-(4-cyclobutylpiperazin-1-yl)-6,7,8,9-tetrahydro-5H-pyrimido[4,5-d]azepine], the inhibition at 4 µM was at least 90%. `O=C(c1cccc(C(F)(F)F)c1Cl)N1CCc2cnc(N3CCN(C4CCC4)CC3)nc2CC1` [Compound 437, 7-[2-chloro-3-(trifluoromethyl)benzoyl]-2-(4-cyclobutylpiperazin-1-yl)-6,7,8,9-tetrahydro-5H-pyrimido[4,5-d]azepine]: the inhibition at 4 µM is at least 90%. As for `O=C(c1cc(C(F)(F)F)ccc1Cl)N1CCc2cnc(N3CCN(C4CCC4)CC3)nc2CC1` [Compound 438, 7-[2-chloro-5-(trifluoromethyl)benzoyl]-2-(4-cyclobutylpiperazin-1-yl)-6,7,8,9-tetrahydro-5H-pyrimido[4,5-d]azepine], the inhibition at 4 µM was at least 90%. Turning to `O=C(c1ccccc1C(F)(F)F)N1CCc2cnc(N3CCN(C4CCC4)CC3)nc2CC1` [Compound 439, 2-(4-cyclobutylpiperazin-1-yl)-7-[2-(trifluoromethyl)benzoyl]-6,7,8,9-tetrahydro-5H-pyrimido[4,5-d]azepine], the inhibition at 4 µM is at least 90%. Turning to `O=C(c1cccc(Cl)c1Cl)N1CCc2cnc(N3CCN(C4CCC4)CC3)nc2CC1` [Compound 440, 2-(4-cyclobutylpiperazin-1-yl)-7-(2,3-dichlorobenzoyl)-6,7,8,9-tetrahydro-5H-pyrimido[4,5-d]azepine], the inhibition at 4 µM was at least 90%.

For the compound `O=C(c1cc(Cl)ccc1Cl)N1CCc2cnc(N3CCN(C4CCC4)CC3)nc2CC1` [Compound 441, 2-(4-cyclobutylpiperazin-1-yl)-7-(2,5-dichlorobenzoyl)-6,7,8,9-tetrahydro-5H-pyrimido[4,5-d]azepine], the inhibition at 4 µM was at least 90%. Consider `O=C(c1ccc(Cl)cc1Cl)N1CCc2cnc(N3CCN(C4CCC4)CC3)nc2CC1` [Compound 442, 2-(4-cyclobutylpiperazin-1-yl)-7-(2,4-dichlorobenzoyl)-6,7,8,9-tetrahydro-5H-pyrimido[4,5-d]azepine], for which the inhibition at 4 µM is at least 90%. The figure for `O=C(c1cccs1)N1CCc2cnc(N3CCN(C4CCC4)CC3)nc2CC1` [Compound 443, 2-(4-cyclobutylpiperazin-1-yl)-7-(2-thienylcarbonyl)-6,7,8,9-tetrahydro-5H-pyrimido[4,5-d]azepine] is at least 90%; for `Cc1ccsc1C(=O)N1CCc2cnc(N3CCN(C4CCC4)CC3)nc2CC1` [Compound 444, 2-(4-cyclobutylpiperazin-1-yl)-7-[(3-methyl-2-thienyl)carbonyl]-6,7,8,9-tetrahydro-5H-pyrimido[4,5-d]azepine] it is at least 90%; for `Cc1ccc(C(=O)N2CCc3cnc(N4CCN(C5CCC5)CC4)nc3CC2)s1` [Compound 445, 2-(4-cyclobutylpiperazin-1-yl)-7-[(5-methyl-2-thienyl)carbonyl]-6,7,8,9-tetrahydro-5H-pyrimido[4,5-d]azepine] it is at least 90%. On to `O=C(c1sccc1Cl)N1CCc2cnc(N3CCN(C4CCC4)CC3)nc2CC1` [Compound 446, 7-[(3-chloro-2-thienyl)carbonyl]-2-(4-cyclobutylpiperazin-1-yl)-6,7,8,9-tetrahydro-5H-pyrimido[4,5-d]azepine], for which the inhibition at 4 µM is at least 90%.

As for `CCOc1ccsc1C(=O)N1CCc2cnc(N3CCN(C4CCC4)CC3)nc2CC1` [Compound 447, 2-(4-cyclobutylpiperazin-1-yl)-7-[(3-ethoxy-2-thienyl)carbonyl]-6,7,8,9-tetrahydro-5H-pyrimido[4,5-d]azepine], the inhibition at 4 µM was at least 90%. As for `CSc1ccc(C(=O)N2CCc3cnc(N4CCN(C5CCC5)CC4)nc3CC2)s1` [Compound 448, 2-(4-cyclobutylpiperazin-1-yl)-7-{[5-(methylthio)-2-thienyl]carbonyl}-6,7,8,9-tetrahydro-5H-pyrimido[4,5-d]azepine], the inhibition at 4 µM is at least 90%. On to `O=C(c1ccc(Br)s1)N1CCc2cnc(N3CCN(C4CCC4)CC3)nc2CC1` [Compound 449, 7-[(5-bromo-2-thienyl)carbonyl]-2-(4-cyclobutylpiperazin-1-yl)-6,7,8,9-tetrahydro-5H-pyrimido[4,5-d]azepine], for which the inhibition at 4 µM is at least 90%.

These data come from patent US20080051387A1, “TETRAHYDROPYRIDO[3,4-D]PYRIMIDINES AND RELATED ANALOGUES” (priority 2006, published 2008).
